According to ChEMBL document CHEMBL4052752, “Synthesis and evaluation of 1-phenyl-1H-1,2,3-triazole-4-carboxylic acid derivatives as xanthine oxidase inhibitors” (Bioorg Med Chem Lett, 2017):

Legend:
[1] = target: T1, Xanthine dehydrogenase/oxidase (Bos taurus, UniProt P80457); test: Inhibition of bovine xanthine oxidase assessed as reduction in uric acid production using xanthine as substrate preincubated for 10 mins followed by substrate addition by spectrophotometric analysis
[2] = target: T1, Xanthine dehydrogenase/oxidase; test: Mixed-type inhibition of bovine xanthine oxidase by Lineweaver-Burk plot method; settings: cattle
[3] = target: T1, Xanthine dehydrogenase/oxidase; test: Potency index, ratio of allopurinol IC50 to compound IC50 for bovine xanthine oxidase; settings: cattle

T1 sequence (P80457 whole entry): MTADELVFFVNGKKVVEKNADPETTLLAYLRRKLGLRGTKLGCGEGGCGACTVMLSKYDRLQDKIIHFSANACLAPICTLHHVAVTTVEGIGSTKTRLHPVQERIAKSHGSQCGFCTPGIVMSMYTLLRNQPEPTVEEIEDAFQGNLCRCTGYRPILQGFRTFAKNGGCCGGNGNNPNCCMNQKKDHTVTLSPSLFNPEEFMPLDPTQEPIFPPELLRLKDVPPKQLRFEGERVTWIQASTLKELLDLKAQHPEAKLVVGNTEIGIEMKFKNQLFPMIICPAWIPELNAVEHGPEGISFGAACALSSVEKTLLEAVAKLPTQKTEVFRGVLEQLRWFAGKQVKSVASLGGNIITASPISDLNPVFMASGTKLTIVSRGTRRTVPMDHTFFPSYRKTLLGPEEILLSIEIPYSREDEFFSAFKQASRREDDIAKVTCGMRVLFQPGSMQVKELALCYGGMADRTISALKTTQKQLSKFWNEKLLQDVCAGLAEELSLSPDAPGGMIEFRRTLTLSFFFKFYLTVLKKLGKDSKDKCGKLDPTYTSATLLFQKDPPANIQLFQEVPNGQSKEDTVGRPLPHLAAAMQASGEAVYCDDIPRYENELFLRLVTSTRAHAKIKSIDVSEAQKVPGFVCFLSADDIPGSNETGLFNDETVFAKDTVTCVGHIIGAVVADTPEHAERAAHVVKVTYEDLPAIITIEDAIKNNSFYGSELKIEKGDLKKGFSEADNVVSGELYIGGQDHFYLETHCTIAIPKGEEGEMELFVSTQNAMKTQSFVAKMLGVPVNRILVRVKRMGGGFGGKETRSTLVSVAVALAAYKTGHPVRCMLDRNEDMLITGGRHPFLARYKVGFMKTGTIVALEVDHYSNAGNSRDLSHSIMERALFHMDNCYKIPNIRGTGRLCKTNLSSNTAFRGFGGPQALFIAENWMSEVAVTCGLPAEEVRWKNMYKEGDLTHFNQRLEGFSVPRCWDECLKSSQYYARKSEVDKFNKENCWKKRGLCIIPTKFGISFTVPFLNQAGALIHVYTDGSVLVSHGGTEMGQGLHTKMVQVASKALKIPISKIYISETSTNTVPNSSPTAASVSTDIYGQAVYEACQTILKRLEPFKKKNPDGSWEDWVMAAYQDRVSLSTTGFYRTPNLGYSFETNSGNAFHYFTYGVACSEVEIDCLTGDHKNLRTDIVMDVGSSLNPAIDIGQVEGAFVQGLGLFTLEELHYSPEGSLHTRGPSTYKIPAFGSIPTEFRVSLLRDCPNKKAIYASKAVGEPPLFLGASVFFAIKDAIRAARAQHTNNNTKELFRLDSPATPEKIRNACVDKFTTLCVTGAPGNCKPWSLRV

Row | Structure (SMILES) | IC50 [1] [nM] | inhibition (INH) [2] | Ratio IC50 [3]
1 | N#Cc1cc(-n2cc(C(=O)O)nn2)ccc1OCc1ccccc1 | 2400 | – | –
2 | N#Cc1cc(-n2cc(C(=O)O)nn2)ccc1OCc1ccc(Cl)cc1 | 940 | – | –
3 | COc1ccc(COc2ccc(-n3cc(C(=O)O)nn3)cc2C#N)cc1 | 720 | – | –
4 | N#Cc1cccc(COc2ccc(-n3cc(C(=O)O)nn3)cc2C#N)c1 | 3350 | – | –
5 | COc1cccc(COc2ccc(-n3cc(C(=O)O)nn3)cc2C#N)c1 | 210 | Active | 36
6 | CCCCCCCCOc1ccc(-n2cc(C(=O)O)nn2)cc1C#N | 630 | – | –
7 | N#Cc1cc(-n2cc(C(=O)O)nn2)ccc1OC1CCCC1 | 1080 | – | –
8 | COc1ccccc1COc1ccc(-n2cc(C(=O)O)nn2)cc1C#N | 760 | – | –
9 | N#Cc1ccc(COc2ccc(-n3cc(C(=O)O)nn3)cc2C#N)cc1 | 850 | – | –

More lines, main results first:

Row | IC50 [1] [nM] | inhibition (INH) [2] | Structure (SMILES) | Ratio IC50 [3]
10 | 3270 | – | CC(C)COc1ccc(-n2cc(C(=O)O)nn2)cc1C#N | –
11 | 1500 | – | CCCCCCOc1ccc(-n2cc(C(=O)O)nn2)cc1C#N | –
12 | 2850 | – | CCCCCOc1ccc(-n2cc(C(=O)O)nn2)cc1C#N | –
13 | > 30000 | – | CCCOc1ccc(-n2cc(C(=O)O)nn2)cc1C#N | –
14 | 1470 | – | CCCCCCCOc1ccc(-n2cc(C(=O)O)nn2)cc1C#N | –
15 | 3960 | – | CCC(C)Oc1ccc(-n2cc(C(=O)O)nn2)cc1C#N (stereo unspecified) | –
16 | 6240 | – | CC(C)Oc1ccc(-n2cc(C(=O)O)nn2)cc1C#N | –
17 | 5030 | – | CCCCOc1ccc(-n2cc(C(=O)O)nn2)cc1C#N | –
18 | 26100 | – | COCCOc1ccc(-n2cc(C(=O)O)nn2)cc1C#N | –
19 | 1620 | – | CC(C)CCOc1ccc(-n2cc(C(=O)O)nn2)cc1C#N | –
